Test results published in patent US11311567B2, “Cytochrome P450 enzyme complexes and methods of treatment using the same” (Innovation Hammer LLC, priority 2004, dated 2022).

How the values were obtained:
human CPR (hCPR) = assay: NADPH-dependent reduction of cytochrome C by CPR in microsomes after treatment with substrates; type: biochemical; settings: microsomes quantified against CPR and Cc; Cc oxidase activity inhibited by potassium cyanide
Description: The following example illustrates an application of human P450 compositions according to the present invention. Procedures followed previously described methods, e.g., U.S. Pat. No. 6,020,288; M. Markwell, et al., Methods of Enzymology 72:296-303 (1981); C. A. Mihaliak, et al., Methods in plant biochemistry 19:261-279 (1993); R. Donaldson, et al., Arch. Biochem. Biophys. 152:199-215 (1972); and M. Persans, et al., Plant Physiol. 109:1483-1490 (1995)).
Methods. CPR substrates have been assayed on various tissues (e.g., U.S. Pat. No. 6,020,288); therefore, response to human CPR (hCPR) was examined under controlled conditions on live index organisms. The direct effects of substrates on hCPR were measured by preparation of microsomes for quantification against CPR and Cc. Controls included equal concentrations of each individual treatment or substrate in surfactant and water. Untreated controls were maintained under identical conditions of culture. Oxidase activity of Cc was inhibited by potassium cyanide. The reaction was initiated by addition of Cc wherein NADPH-dependent reduction of Cc was monitored for increases in absorbance.

[1] = basis for selecting preferred oxidants; cited from earlier work

Compound	induction relative to components tested (human CPR (hCPR))	one-electron reduction potential (E0) [1] [mV]
Cc1cc2nc3c(=O)[nH]c(=O)nc-3n(C[C@H](O)[C@H](O)[C@H](O)COP(=O)(O)O)c2cc1C [FMN, flavin mononucleotide]	over 4.5 times	−313
O=C(O)CO [glycolate]		−290
nitrobenzoate		−396
